Measurements taken from US20050020544A1, “Bicyclic CB2 cannabinoid receptor ligands” (priority 2002, published 2005).

Target: T1, human CB1 receptor (Homo sapiens, UniProt P21554)
T1 construct: purchased Perkin Elmer/NEN; host or cells: HEK-293 cells, stably transfected (membranes)
Assay: Adenylylcyclase assay: forskolin-activated cAMP in CB1 transfected HEK-293 cells
Assay type: cell-based
Procedure: Cannabinoids and derivatives bind to G-protein-coupled CB1 and CB2 receptors and exert their activity via the inhibition of adenylylcyclase activity. An adenylylcyclase assay forms a basis for the functional analysis of the compounds by determining their capacity to inhibit or promote forskolin-activated cAMP production. The assay is carried out according to Chin et al. (Chin, C. N. et al., J. Neurochem. 70: 366-73, 1998). Briefly, HEK-293 human kidney cells (ATCC#CRL-1573) stably transfected with either the human CB1 or CB2 receptor (cDNA) were grown in DMEM supplemented with 10% fetal calf serum, 1% Penicillin-Streptomycin and 2 mM L-glutamine. Cells were seeded in 24 wells plate at 5×10^4 cells/well and incubated for 48 hours. Medium was then removed and the adherent cells were washed with PBS. Two hundred μl of serum free medium supplemented with 0.2 mM Ro 20-1724, 0.25% BSA, and 20 mM HEPES was then added to each well. The cells were then activated with 1 μM forskolin in presence of the bicyclic test compounds in concentrations ranging from 10 pM up to 1 μM. The activated cells were then incubated at 37° C. for 20 minutes and the reaction terminated with 1.2 M HCl to a final concentration of 0.1 M. Cells were lyzed by freeze and thaw and the lysate was neutralized with 2 M HEPES, pH 7.5. cAMP was measured in 50 μl aliquots using the [^3H]-cAMP assay system (Amersham).
This experiment was first performed on CB2 receptor transfected cells.

T1 sequence (P21554 whole entry): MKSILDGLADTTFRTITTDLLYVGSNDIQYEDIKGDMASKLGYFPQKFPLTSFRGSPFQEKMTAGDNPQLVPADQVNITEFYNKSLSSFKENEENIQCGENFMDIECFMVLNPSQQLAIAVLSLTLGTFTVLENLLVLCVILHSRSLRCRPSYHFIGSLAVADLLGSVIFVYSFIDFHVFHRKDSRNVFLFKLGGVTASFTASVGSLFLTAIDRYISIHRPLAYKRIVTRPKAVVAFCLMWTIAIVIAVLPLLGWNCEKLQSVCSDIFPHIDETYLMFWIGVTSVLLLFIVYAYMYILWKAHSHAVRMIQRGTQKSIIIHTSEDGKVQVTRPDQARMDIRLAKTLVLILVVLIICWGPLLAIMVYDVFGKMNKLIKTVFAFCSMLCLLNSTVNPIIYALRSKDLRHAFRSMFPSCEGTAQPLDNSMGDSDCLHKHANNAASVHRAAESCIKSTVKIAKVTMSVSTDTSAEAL

## CCCCCCC(C)(C)c1cc(O)c(C2CC(=O)C3CC2C3(C)C)c(O)c1 (single isomer, unassigned; (-)) [Compound A, (−)-4-[4-(1,1-Dimethyl-heptyl)2,6-dihydroxy-phenyl]-6,6-dimethyl-bicyclo[3.1.1)heptan-2-one]
  IC50: 10.3 nM
HEK293, CB1 transfected HEK-293, 1 μM forskolin, read-out: maximal inhibition at 1 μM
  inhibition at 1 µM: 69%
